Experimental data from patent US9730679B1, “Device for sterile uterine sampling and drug delivery” (University of South Florida, priority 2012, dated 2017).
≈ marks a conversion by molar mass, not a printed value.

Legend:
[1] = system: normal human ovarian surface epithelial (OSE) cells; format: cell-based; conditions: 5 days
Protocol: Cytotoxicity of the DCNPs was determined by treating normal human ovarian surface epithelial (OSE) cells with different concentrations of doxycycline-loaded nanoparticles, then monitoring cell viability over the next five days. The OSE cells were cultured for 4 to 7 days in flasks containing medium199/MCDB105 media supplemented with 10% fetal bovine serum. The cells were removed from the flasks and counted, and then 100 μL of medium containing cells was added to the wells of a 96-well plate to give final cell concentrations of 5×10^2, 1.0×10^3, or 2.0×10^3 cells/mL. After 24 hours incubation at 37° C., the cells were treated with blank nanoparticles, DCNP4 (1 and 2 μg/mL), DCNP6 (1 and 2 μg/mL), or unencapsulated doxycycline (1 and 2 μg/mL). The plate was then incubated at 37° C. Bright microscopy was used to examine the cell morphology after treatment just before the assessing for cytotoxicity. Cytotoxicity was assessed on days 1, 3, and 5 by WST-1 assay. WST-1 assay reagent (10 μL) was added to each well, followed by incubation for another 4 hours at 37° C. and then spectrophotometric assessment of cell viability. […] This dye was quantified using a Biotex Synergy multiplate reader to measure absorbance at 450 nm (reference wavelength was 630 nm). All treatments were assayed in triplicate (n=3) and calculated according to equation 5: […]

[2] = system: Escherichia coli (ATCC 25922); test: Minimum inhibitory concentration, visual turbidimetric method with OD600 of MIC tubes; format: cell-based; conditions: ATCC25922, 4 h, E. coli, four hours incubation at 37° C., read-out: minimum inhibitory doxycycline concentration, MIC
Protocol: To determine the antibacterial activity of the doxycycline-loaded chitosan nanoparticles, minimum inhibitory concentrations (MICs) and minimum bactericidal concentrations (MBCs) were evaluated. The procedures for both assays were adopted from Lee et al. (Blanchet […]. Forward Selection of Explanatory Variables. Ecology. 2008; 89:2623-2632). MIC is the lowest concentration of DCNPs that inhibits bacterial growth. For the analyses, a visual turbidimetric method was used. Freshly prepared nanoparticles, blank and drug-loaded, were UV-sterilized for ten minutes. […] A 500 μL aliquot of this solution with sterilized particles was added to a tube containing Luria-Bertani (LB) broth for a total volume of 2 mL. A serial dilution, with a dilution factor of 0.3, was performed for the remaining six tubes. A parallel series of experiments was also run using unencapsulated doxycycline. Under sterile conditions, the tubes containing particles were inoculated with 1.0×10^5 colony-forming units (CFUs)/mL of Escherichia coli cells in LB broth, then incubated at 37° C. under agitation for four hours. Following the incubation, the tubes were assessed visually for the appearance of turbidity (i.e., bacterial growth). […] All MIC tubes were analyzed to assess the amount of bacteria present by measuring optical density of the suspension at 600 nm (OD600) and then calculating the number of bacterial cells present.

MIC [2]: 13 µg/mL (≈ 29.3 µM)
Structure (SMILES): C[C@H]1c2cccc(O)c2C(=O)C2=C(O)[C@]3(O)C(=O)C(C(N)=O)=C(O)[C@@H](N(C)C)[C@@H]3[C@@H](O)[C@@H]21 [Doxy, Doxycycline]
decrease in cell viability [1]: 61%
